Source: patent US20050148763A1, “Peg-binding pth or peg-binding pth derivative” (Chugai Seiyaku Kabushiki Kaisha, priority 2002, published 2005)
Like-named read-outs stand apart in the source and are kept apart here.

Legend:
[1] = Hypercalcemic effect of PEG-PTH(1-34) in normal male BDF1 mice; type: in vivo; conditions: sc, hPTH(1-34) 50-500 nmol/kg, PEG-PTHs 150 nmol/kg
Description: 2 k and 5 k PEG-PTH(1-34) were also adjusted similarly to 30 nmol/mL (calculated as PTH) and allowed to stand on ice immediately before administration.
Male BDF1 mice at 5 weeks of age (Charles River Japan, Inc.) were measured for their body weight. Immediately before drug administration, blood was collected by orbital puncture into heparinized capillary tubes and measured for baseline levels of blood ionized calcium and pH using a Ca^2+/pH analyzer (Model 348/Bayer Medical Ltd.) to give the corrected level of ionized calcium at pH 7.4 for each sample. The mice received subcutaneous administration of each drug at a dose of 5 mL/kg. […] At 1, 3 and 6 hours after administration, blood was collected by orbital puncture to monitor the time course of corrected blood ionized calcium levels.

[2] = clinical trial, cited from earlier work
[3] = clinical, single subcutaneous 20-40 μg, at 4 to 6 hours after administration; cited from earlier work
human PTH1 receptors = target: T1, human PTH1 receptors (Homo sapiens, UniProt Q03431); assay: in vitro ability to produce cAMP, HKRK-B64 cells; type: cell-based; conditions: Table 2(2), n=2-3
T1 construct: expressed in transfected cells; host or cells: HKRK-B7 and HKRK-B64 cells (derived from pig kidney LLC-PK1 cells)
T1 sequence (Q03431 27-593): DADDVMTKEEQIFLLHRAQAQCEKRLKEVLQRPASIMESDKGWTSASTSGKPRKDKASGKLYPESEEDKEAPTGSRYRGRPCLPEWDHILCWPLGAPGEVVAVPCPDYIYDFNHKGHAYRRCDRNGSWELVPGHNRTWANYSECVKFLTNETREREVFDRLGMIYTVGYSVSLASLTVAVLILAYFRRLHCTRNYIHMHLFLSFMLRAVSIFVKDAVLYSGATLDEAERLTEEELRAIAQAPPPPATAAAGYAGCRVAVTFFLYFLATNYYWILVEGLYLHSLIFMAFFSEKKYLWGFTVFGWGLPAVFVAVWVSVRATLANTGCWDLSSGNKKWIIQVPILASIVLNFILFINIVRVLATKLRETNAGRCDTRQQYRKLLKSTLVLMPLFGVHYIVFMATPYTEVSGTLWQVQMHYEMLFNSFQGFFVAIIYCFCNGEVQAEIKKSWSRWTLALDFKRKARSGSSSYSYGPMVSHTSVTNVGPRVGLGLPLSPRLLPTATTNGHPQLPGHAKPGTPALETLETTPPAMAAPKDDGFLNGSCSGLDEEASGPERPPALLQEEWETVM
Description: Each PEG-PTH sample was assayed for its ability to produce cAMP (indicative of the increasing effect of PTH on bone mass) as follows. HKRK-B7 and HKRK-B64 cells, genetically modified from pig kidney-derived LLC-PK1 cells to overexpress human PTH1 receptors at levels of about 1×10^6 and 9×10^4 receptors per cell, respectively, as well as EW29 cells expressing about 1.9×10^5 rat PTH1 receptors per cell (Takasu et al., J. Bone. Miner. Res. 14: 11-20, 1999) were grown in DMEM supplemented with 10% FBS, 1% penicillin and 1% streptomycin. These cells were seeded in 96-well plates at 1×10^5 cells/well and incubated overnight. On the following day, the cells were washed once with 200 μL binding buffer (50 mM Tris-HCl/100 mM NaCl/5 mM KCl/2 mM CaCl2/5% inactivated horse serum/0.5% inactivated bovine serum, pH 7.7), followed by addition of 100 μL cAMP assay buffer (DMEM/2 mM 3-isobutyl-1-methylxanthine/1 mg/mL bovine serum albumin/35 mM HEPES-NaOH, pH 7.4) on ice. […] After removing the reaction solution, the plates were placed on powdered dry ice to freeze the cells and then removed from the dry ice. The cells were thawed with 50 μL of 50 mM HCl and frozen again on dry ice. The level of intracellular cAMP was determined with a commercially available EIA kit (Biotrak cAMP EIA system, Amersham).

[4] = Increasing effect on bone mass in OVX rats; type: in vivo
Description: 2 k PEG-[Cys^35]-PTH(1-35) was studied for the increasing effect on bone mass in OVX rats as follows. […] These samples were divided into aliquots and stored at −80° C. until use.
Female SD-IGS rats at 7 weeks of age (Charles River Japan, Inc.) were used, 60 of which were ovariectomized (OVX) to remove both ovaries and 7 of which were sham-operated. After 2 weeks, the ovariectomized rats were measured for their body weight and divided into groups of 6 rats each such that the mean body weights of all groups were identical.
Each drug was given subcutaneously at a dose of 1 ml/kg on a 5 times-a-week basis for 4 weeks. On the last day of administration, the rats were housed in metabolic cages and 24-hour urine was collected from each rat. On the following day, after the rats were euthanized by exsanguination under anesthesia, an autopsy was performed to collect blood, lumbar vertebrae and femurs. The urine and blood were taken into tubes and centrifuged to collect the respective supernatants, which were stored at −20° C. until assayed for parameters. The lumbar vertebrae and right femurs were stored in 70% ethanol. The average bone density of the second to fifth lumbar vertebrae and the bone density of the right femur were measured using a dual X-ray bone mineral densitometer (DCS-600EX, ALOKA).

time of maximum increase in blood ionized calcium levels after administration [1] | Maximum cAMP response (human PTH1 receptors) [pmol/well] | EC50 (human PTH1 receptors; cAMP production) [pM] | Molecule | nausea and headache as side effects (in words) ([2]; dose of 20 μg) | nausea and headache as side effects (in words) ([2]; dose of 40 μg) | blood calcium levels (in words) [3] | lumbar and femoral bone density, significance (in words) ([4]; OVX rats, 7.5, 30 and 120 nmol/kg sc, 4 weeks) | lumbar and femoral bone density (in words) ([4]; OVX rats, sc 5 times a week for 4 weeks)
one | – | – | CC[C@H](C)[C@H](NC(=O)[C@H](CCC(=O)O)NC(=O)[C@H](CO)NC(=O)[C@@H](NC(=O)[C@@H](N)CO)C(C)C)C(=O)N[C@@H](CCC(N)=O)C(=O)N[C@@H](CC(C)C)C(=O)N[C@@H](CCSC)C(=O)N[C@@H](Cc1cnc[nH]1)C(=O)N[C@@H](CC(N)=O)C(=O)N[C@@H](CC(C)C)C(=O)NCC(=O)N[C@@H](CCCCN)C(=O)N[C@@H](Cc1cnc[nH]1)C(=O)N[C@@H](CC(C)C)C(=O)N[C@@H](CC(N)=O)C(=O)N[C@@H](CO)C(=O)N[C@@H](CCSC)C(=O)N[C@@H](CCC(=O)O)C(=O)N[C@@H](CCCN=C(N)N)C(=O)N[C@H](C(=O)N[C@@H](CCC(=O)O)C(=O)N[C@@H](Cc1c[nH]c2ccccc12)C(=O)N[C@@H](CC(C)C)C(=O)N[C@@H](CCCN=C(N)N)C(=O)N[C@@H](CCCCN)C(=O)N[C@@H](CCCCN)C(=O)N[C@@H](CC(C)C)C(=O)N[C@@H](CCC(N)=O)C(=O)N[C@@H](CC(=O)O)C(=O)N[C@H](C(=O)N[C@@H](Cc1cnc[nH]1)C(=O)N[C@@H](CC(N)=O)C(=O)N[C@@H](Cc1ccccc1)C(=O)O)C(C)C)C(C)C [hPTH(1-34), reference compound] | same frequency as observed in the placebo group | caused nausea and headache as side effects at a statistically significant level | transient elevation of blood calcium levels | – | –
– | 65.4 ± 19.4 | 600 | 2 k PEG-[Cys^35]-hPTH(1-35): [Cys^35]-PTH(1-35) conjugated with mPEG 2 k-MAL (2 kDa methoxy-PEG-maleimide) at the C-terminal cysteine (SVSEIQLMHNLGKHLNSMERVEWLRKKLQDVHNFC; Parathyroid hormone 2 kDa mPEG-maleimide at Cys35; UniProt P01270 32-66, looked up, variant V35C) | – | – | – | statistically-significant increases in both lumbar and femoral bone density | dose-dependent increases in lumbar and femoral bone density
